# In PMC3433420 (PLoS ONE, 2012):
# Non-standard residues stand in square brackets, D forms with d. Residues, ends and D or L forms follow the SMILES beside them. No end group written: not given here. pY = N[C@@H](Cc1ccc(OP(=O)(O)O)cc1)C(=O)O
# Key:
# [1] = target: PIK3R2-NC tandem SH2 domains (Homo sapiens, UniProt O00459); assay: FP saturation binding assay
# RASA1-N SH2 domain = target: T1, RASA1-N SH2 domain (Homo sapiens, UniProt P20936); assay: FP saturation binding assay
# T1 sequence (P20936 181-272 limits assumed): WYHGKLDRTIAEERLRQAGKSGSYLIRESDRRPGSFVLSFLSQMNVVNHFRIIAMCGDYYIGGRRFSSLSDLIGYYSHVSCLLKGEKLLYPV
# SH2 and PTB domains = assay: Sum of relative binding free energies (ΔΔG) from FP KDs, relative to 20 µM threshold; parameters: species or system human; unit not given here; details: for Sum free energies (ΔΔG): summed over the receptor's phosphopeptides
# Method: In order to further define and classify commonalities and differences among the ErbB family, the relative binding free energy (FE) of each SH2 domain was summed across all phosphosites on each receptor relative to the assay detection threshold of 20 µM according to Equation (3): [drawing 10] (3)
# Chain of PIK3R2-NC tandem SH2 domains (O00459 330-716 limits assumed): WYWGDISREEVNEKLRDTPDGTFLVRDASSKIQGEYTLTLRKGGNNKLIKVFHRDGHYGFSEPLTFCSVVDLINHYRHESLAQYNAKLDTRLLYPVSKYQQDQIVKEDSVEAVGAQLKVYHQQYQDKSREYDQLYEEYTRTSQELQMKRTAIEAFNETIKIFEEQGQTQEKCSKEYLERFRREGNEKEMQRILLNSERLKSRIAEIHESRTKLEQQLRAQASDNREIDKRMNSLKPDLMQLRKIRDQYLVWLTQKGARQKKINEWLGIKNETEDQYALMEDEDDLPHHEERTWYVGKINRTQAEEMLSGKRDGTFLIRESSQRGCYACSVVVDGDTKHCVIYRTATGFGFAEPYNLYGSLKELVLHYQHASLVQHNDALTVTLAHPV
molecule,measurement,setting,value
CSCC[C@H](NC(=O)[C@H](Cc1ccc(OP(=O)(O)O)cc1)NC(=O)[C@H](CCC(=O)O)NC(=O)[C@H](Cc1ccc(O)cc1)NC(=O)[C@H](CC(=O)O)NC(=O)[C@@H](N)CCC(=O)O)C(=O)N[C@@H](CC(N)=O)C(=O)N[C@@H](CCCNC(=N)N)C(=O)N[C@@H](CCC(N)=O)C(=O)N[C@@H](CCCNC(=N)N)C(=O)N[C@@H](CC(=O)O)C(=O)NCC(=O)N[C@@H](CC(=O)O)C(=O)O [ErbB3 1262 13-mer] (HELM PEPTIDE1{E.D.Y.E.[O=C([C@H](Cc1ccc(OP(=O)(O)O)cc1)N[*:1])[*:2]].M.N.R.Q.R.D.G.D}$$$$V2.0),Kd,[1],18.1 µM
same,Kd,RASA1-N SH2 domain,9.06 µM
FDNLYYWDQDPPD [ErbB2 Y1221 (non-phospho)],Kd,RASA1-N SH2 domain,3.69 µM
CC(C)C[C@H](NC(=O)[C@H](CCCNC(=N)N)NC(=O)[C@H](C)NC(=O)[C@H](Cc1ccc(OP(=O)(O)O)cc1)NC(=O)[C@H](Cc1c[nH]cn1)NC(=O)[C@@H](NC(=O)[C@H](Cc1c[nH]cn1)NC(=O)[C@@H]1CCCN1)C(C)C)C(=O)N[C@@H](CCCCN)C(=O)N[C@H](C(=O)N[C@@H](CC(C)C)C(=O)N[C@@H](CCCNC(=N)N)C(=O)N[C@@H](CC(=O)O)C(=O)O)[C@@H](C)O [ErbB3pY1307] (HELM PEPTIDE1{P.H.V.H.[O=C([C@H](Cc1ccc(OP(=O)(O)O)cc1)N[*:1])[*:2]].A.R.L.K.T.L.R.D}$$$$V2.0),Kd,RASA1-N SH2 domain,1.88 µM
ErbB3 (SEQG[pY]EEMRAFQD),Sum free energies (ΔΔG),SH2 and PTB domains; domain ABL1,0.48
same,Sum free energies (ΔΔG),SH2 and PTB domains; domain ABL2,1.81
same,Sum free energies (ΔΔG),SH2 and PTB domains; domain BCAR3,1.81
same,Sum free energies (ΔΔG),SH2 and PTB domains; domain BLK,4.66
same,Sum free energies (ΔΔG),SH2 and PTB domains; domain BLNK,1.99
same,Sum free energies (ΔΔG),SH2 and PTB domains; domain BMX,0.00
same,Sum free energies (ΔΔG),SH2 and PTB domains; domain BTK,0.53
same,Sum free energies (ΔΔG),SH2 and PTB domains; domain CRK,2.18
same,Sum free energies (ΔΔG),SH2 and PTB domains; domain CRKL,0.00
same,Sum free energies (ΔΔG),SH2 and PTB domains; domain DAPP1,0.00
same,Sum free energies (ΔΔG),SH2 and PTB domains; domain FER,1.84
same,Sum free energies (ΔΔG),SH2 and PTB domains; domain FES,2.60
same,Sum free energies (ΔΔG),SH2 and PTB domains; domain FGR,2.50
same,Sum free energies (ΔΔG),SH2 and PTB domains; domain GRAP2,0.40
same,Sum free energies (ΔΔG),SH2 and PTB domains; domain GRB2,0.00
same,Sum free energies (ΔΔG),SH2 and PTB domains; domain GRB7,8.74
same,Sum free energies (ΔΔG),SH2 and PTB domains; domain GRB10,0.00
same,Sum free energies (ΔΔG),SH2 and PTB domains; domain GRB14,0.00
same,Sum free energies (ΔΔG),SH2 and PTB domains; domain HCK,5.34
same,Sum free energies (ΔΔG),SH2 and PTB domains; domain HSH2D,2.34
same,Sum free energies (ΔΔG),SH2 and PTB domains; domain INPPL1,1.51
same,Sum free energies (ΔΔG),SH2 and PTB domains; domain ITK,1.44
same,Sum free energies (ΔΔG),SH2 and PTB domains; domain LCK,9.34
same,Sum free energies (ΔΔG),SH2 and PTB domains; domain LCP2,1.08
same,Sum free energies (ΔΔG),SH2 and PTB domains; domain LYN,6.66
same,Sum free energies (ΔΔG),SH2 and PTB domains; domain MATK,2.34
same,Sum free energies (ΔΔG),SH2 and PTB domains; domain NCK1,1.97
same,Sum free energies (ΔΔG),SH2 and PTB domains; domain NCK2,2.78
same,Sum free energies (ΔΔG),SH2 and PTB domains; domain PIK3R1-C,15.79
same,Sum free energies (ΔΔG),SH2 and PTB domains; domain PIK3R1-N,15.42
same,Sum free energies (ΔΔG),SH2 and PTB domains; domain PIK3R1-NC,18.21
same,Sum free energies (ΔΔG),SH2 and PTB domains; domain PIK3R2-C,4.66
same,Sum free energies (ΔΔG),SH2 and PTB domains; domain PIK3R2-N,15.58
same,Sum free energies (ΔΔG),SH2 and PTB domains; domain PIK3R2-NC,17.40
same,Sum free energies (ΔΔG),SH2 and PTB domains; domain PIK3R3-C,14.57
same,Sum free energies (ΔΔG),SH2 and PTB domains; domain PIK3R3-N,18.45
same,Sum free energies (ΔΔG),SH2 and PTB domains; domain PIK3R3-NC,23.70
same,Sum free energies (ΔΔG),SH2 and PTB domains; domain PLCG1-C,12.45
same,Sum free energies (ΔΔG),SH2 and PTB domains; domain PLCG1-N,2.23
same,Sum free energies (ΔΔG),SH2 and PTB domains; domain PLCG1-NC,12.83
same,Sum free energies (ΔΔG),SH2 and PTB domains; domain PLCG2-N,0.60
same,Sum free energies (ΔΔG),SH2 and PTB domains; domain PLCG2-NC,3.76
same,Sum free energies (ΔΔG),SH2 and PTB domains; domain PTK6,7.16
same,Sum free energies (ΔΔG),SH2 and PTB domains; domain PTPN6-C,0.00
same,Sum free energies (ΔΔG),SH2 and PTB domains; domain PTPN6-NC,0.00
same,Sum free energies (ΔΔG),SH2 and PTB domains; domain PTPN11-C,0.00
same,Sum free energies (ΔΔG),SH2 and PTB domains; domain PTPN11-N,4.57
same,Sum free energies (ΔΔG),SH2 and PTB domains; domain PTPN11-NC,4.70
same,Sum free energies (ΔΔG),SH2 and PTB domains; domain RASA1-C,0.68
same,Sum free energies (ΔΔG),SH2 and PTB domains; domain RASA1-N,11.64
same,Sum free energies (ΔΔG),SH2 and PTB domains; domain RASA1-NC,10.86
same,Sum free energies (ΔΔG),SH2 and PTB domains; domain SH2B2,0.53
same,Sum free energies (ΔΔG),SH2 and PTB domains; domain SH2B3,5.05
same,Sum free energies (ΔΔG),SH2 and PTB domains; domain SH2B,1.60
same,Sum free energies (ΔΔG),SH2 and PTB domains; domain SH2D1A,6.64
same,Sum free energies (ΔΔG),SH2 and PTB domains; domain SH2D1B,6.98
same,Sum free energies (ΔΔG),SH2 and PTB domains; domain SH2D2A,10.39
same,Sum free energies (ΔΔG),SH2 and PTB domains; domain SH2D3A,0.00
same,Sum free energies (ΔΔG),SH2 and PTB domains; domain SH2D3C,5.13
same,Sum free energies (ΔΔG),SH2 and PTB domains; domain SH3BP2,1.31
same,Sum free energies (ΔΔG),SH2 and PTB domains; domain SHB,1.08
same,Sum free energies (ΔΔG),SH2 and PTB domains; domain SHC1-PTB,8.01
same,Sum free energies (ΔΔG),SH2 and PTB domains; domain SHC1,3.41
same,Sum free energies (ΔΔG),SH2 and PTB domains; domain SHC2-PTB,4.78
same,Sum free energies (ΔΔG),SH2 and PTB domains; domain SHC3,0.95
same,Sum free energies (ΔΔG),SH2 and PTB domains; domain SHC4,1.50
same,Sum free energies (ΔΔG),SH2 and PTB domains; domain SHD,1.64
same,Sum free energies (ΔΔG),SH2 and PTB domains; domain SHE,0.00
same,Sum free energies (ΔΔG),SH2 and PTB domains; domain SHF,0.00
same,Sum free energies (ΔΔG),SH2 and PTB domains; domain SLA2,4.59
same,Sum free energies (ΔΔG),SH2 and PTB domains; domain SLA,0.46
same,Sum free energies (ΔΔG),SH2 and PTB domains; domain SOCS1,0.00
same,Sum free energies (ΔΔG),SH2 and PTB domains; domain SOCS2,2.96
same,Sum free energies (ΔΔG),SH2 and PTB domains; domain SOCS3,4.06
same,Sum free energies (ΔΔG),SH2 and PTB domains; domain SOCS5,6.74
same,Sum free energies (ΔΔG),SH2 and PTB domains; domain SOCS6,6.61
same,Sum free energies (ΔΔG),SH2 and PTB domains; domain SRC,9.70
same,Sum free energies (ΔΔG),SH2 and PTB domains; domain STAP1,1.44
same,Sum free energies (ΔΔG),SH2 and PTB domains; domain SUPT6H,0.00
same,Sum free energies (ΔΔG),SH2 and PTB domains; domain SYK-C,0.00
same,Sum free energies (ΔΔG),SH2 and PTB domains; domain SYK-N,0.00
same,Sum free energies (ΔΔG),SH2 and PTB domains; domain SYK-NC,2.08
same,Sum free energies (ΔΔG),SH2 and PTB domains; domain TEC,0.70
same,Sum free energies (ΔΔG),SH2 and PTB domains; domain TENC1,3.35
same,Sum free energies (ΔΔG),SH2 and PTB domains; domain TNS1,3.92
same,Sum free energies (ΔΔG),SH2 and PTB domains; domain TNS3,4.07
same,Sum free energies (ΔΔG),SH2 and PTB domains; domain TNS4,0.67
same,Sum free energies (ΔΔG),SH2 and PTB domains; domain TXK,1.88
same,Sum free energies (ΔΔG),SH2 and PTB domains; domain VAV1,2.95
same,Sum free energies (ΔΔG),SH2 and PTB domains; domain VAV2,5.08
same,Sum free energies (ΔΔG),SH2 and PTB domains; domain VAV3,5.15
same,Sum free energies (ΔΔG),SH2 and PTB domains; domain YES1,10.32
same,Sum free energies (ΔΔG),SH2 and PTB domains; domain ZAP70-C,0.57
same,Sum free energies (ΔΔG),SH2 and PTB domains; domain ZAP70-N,0.00
same,Sum free energies (ΔΔG),SH2 and PTB domains; domain ZAP70-NC,6.20
ERBB3 (SEQG[pY]EEMRAFQD),GO_SumDDG,SH2 and PTB domains; GO group Adaptors,1.375
same,GO_SumDDG,SH2 and PTB domains; GO group Chromatin Remodeling,0
same,GO_SumDDG,SH2 and PTB domains; GO group Cytoskeletal Regulation,3.549
same,GO_SumDDG,SH2 and PTB domains; GO group Kinases,3.776
same,GO_SumDDG,SH2 and PTB domains; GO group Phosphatases,2.349
same,GO_SumDDG,SH2 and PTB domains; GO group Phosphatidyl Inositol Kinases,12.5484
same,GO_SumDDG,SH2 and PTB domains; GO group Phosphatidyl Inositol Phosphatases,1.508
same,GO_SumDDG,SH2 and PTB domains; GO group Phospholipases,8.299
same,GO_SumDDG,SH2 and PTB domains; GO group RAS GEFs,3.469
same,GO_SumDDG,SH2 and PTB domains; GO group RAS GTPases,10.8637
same,GO_SumDDG,SH2 and PTB domains; GO group RHO GEFs,4.394
same,GO_SumDDG,SH2 and PTB domains; GO group Scaffolds,3.618
same,GO_SumDDG,SH2 and PTB domains; GO group Signal Regulation,2.5932
